Data set [1] has as its system protein biosynthesis. Kind of data set: inhibition of protein biosynthesis. The settings on record: concentration of compound; read-out: Protein Synthesis (inhibition of protein biosynthesis). Type of data set: biochemical. An excerpt: (§1) Initial results are shown in Table 2 for inhibition of protein biosynthesis (column 1), cytotoxicity (column 2), and anti-tumor activity (column 3) of tamandarin A, as compared to the related anti-tumor compound didemnin B. The results in Table 2 are given in units of concentration of the selected compound.

Data set [2] deals with tumor. Briefly: anti-tumor activity (Assay Mean). Type of data set: cell-based.
From the text: as §1

In data set [3] the test system is NCI-60 60 tumor cell line panel. Kind of data set: cytotoxicity, NCI-60 tumor cell line panel mean. Type of data set: cell-based. Here is the method: as §1
As used herein, “GI50” refers to the dose of a compound which is capable of producing 50% inhibition of cell growth. GI50 is assessed by comparing growth of cells to which a compound has been administered with growth of the same cells to which the compound has not been administered.
As used herein, “LC50” refers to the dose of a compound which is capable of producing 50% lethality in cells. LC50 is assessed by comparing death of cells in a population of cells to which a compound has been administered with the death of cells in a population of the same cells to which the compound has not been administered.
“NCI-60” refers to a 60 tumor cell line panel which from the National Cancer Institute (NCI, Frederick, MD). “NCI-60 Mean” is the average GI50 or LC50 for the panel treated with the selected compound.

Data set [4] has as its system pancreatic carcinoma. Particulars: cited from earlier work.

As for `CC[C@H](C)[C@H]1NC(=O)[C@@H](NC(=O)[C@@H](CC(C)C)N(C)C(=O)[C@@H]2CCCN2C(=O)C(C)O)[C@@H](C)OC(=O)[C@H](Cc2ccc(OC)cc2)N(C)C(=O)[C@@H]2CCCN2C(=O)[C@H](CC(C)C)NC(=O)[C@@H](C)C(=O)[C@H](C(C)C)OC(=O)C[C@@H]1O` (stereo partly shown) [Didemnin B, reference compound], the IC50 in data set [1] worked out at 4 µM. Also, the “Anti-tumor activity (Assay Mean)” value in data set [2] is on record as 1.58 nM.
As to tamandarin A, in data set [1], the IC50 came out at 1.3 µM. The “cytotoxicity compared with didemnin B” value in data set [3] (in vitro, assays of Table 2) is on record as “significantly less cytotoxic”. The same compound registered an LC50 in data set [3] (mean over 60 tumor cell line panel, 50% lethality in cells) of 4.8 µM. Further, the “Anti-tumor activity (Assay Mean)” value in data set [2] is recorded as 1.31 nM. Also, the “in vitro activity against pancreatic carcinoma compared with didemnin B” value in data set [4] is on record as “greater in vitro activity”.

The values are drawn from patent US7122519B2, “Didemnin analogs and fragments and methods of making and using them” (priority 2000, dated 2006).
